Laboratory results published in patent US20260041093A1, “Ionic Derivatives Of Aromatic Carboxylic Acid For Use As Plant Stimulants, Method For Stimulating Plants And Use Of These Derivatives For Manufacturing Compositions For Stimulating Plants” (FUNDACJA UNIWERSYTETU IM. ADAMA MICKIEWICZA W POZNANIU, priority 2022, published 2026).
Like-named read-outs stand apart in the source and are kept apart here.

Experiments:
tulip = experiment: Tulip bulbs in peat watered with working solution: height, stem diameter, weights, root length, flowering, vigor (Example 1); format: in vivo; conditions: 80 mg/L, benzothiadiazole salt 30 mg/L
Description: Control plants were watered with distilled water. During the conducted experiment, plant height was measured before each treatment. Flowering length and plant vigor were also studied. After 20 days from the end of the last treatment, the fresh and dry weight of aboveground parts and roots, and root length were assessed.

winter rapeseed = conditions: for more aboveground dry matter compared to control: last harvest date, fully ripe
Source text: The experiment was established using the long strip method in four repetitions. The dimensions of the plots at establishment were 96 m^2 gross, while the harvestable area was 23.25 m^2 net.
In the experiment, uniform NPK fertilization was applied, using both bulk and liquid fertilizers.
The following facilities were included in the experiment: • 1. control, no stimulant application, standard fungicide protection • 2. stimulant applied at stage 31-32 according to the BBCH development scale, standard fungicide protection • 3. stimulant applied at stage 53-55 according to the BBCH development scale, no fungicide protection

broccoli = experiment: Broccoli seedlings in pots sprayed: height, fresh and dry weight (Example 4); format: in vivo
Description: Broccoli seedling were planted into pots with peat substrate (P9 pots having 0.5 l). Pots were placed in greenhouse and cultivated for a 1 month. […] 2-fluoroethyl(trimethyl)ammonium benzo[1,2,3]thiadiazole-7-carboxylate; 3. 2-bromoethyl(trimethyl)ammonium benzo[1,2,3]thiadiazole-7-carboxylate; 4. 2-chloroethyl(trimethyl)ammonium benzo[1,2,3]thiadiazole-7-carboxylate; 5. 2-iodoethyl(trimethyl)ammonium benzo[1,2,3]thiadiazole-7-carboxylate used at a concentration of 30 mg/L and 6. 2-hydroxyethyl(trimethyl)ammonium 3-chlorosalicylate (tested also at a concentration of 50 mg/L); 7. 3-chlorosalicylate 2-fluoroethyl(trimethyl)ammonium; 8. 3-chlorosalicylate 2-bromoethyl(trimethyl)ammonium; 9. 3-chlorosalicylate 2-chloroethyl(trimethyl)ammonium; 10. 3-chlorosalicylate 2-iodoethyl(trimethyl)ammonium used at a concentration of 80 mg/L. Plants were sprayed with tested substances three times at 10-day intervals. Plants treated with water only were the untreated control. During the course of the experiment, the height of the plants was measured, and at the end the fresh and dry weight of the aboveground part was evaluated. The experiment was conducted in 4 repetitions with 5 plants in each (a total of 20 plants per each combination).

tomato seedlings = experiment: Tomato seedlings in pots sprayed 3 times: height, fresh and dry weight, chlorophyll (Example 3); format: in vivo; conditions: 80 mg/L, benzothiadiazole salt 30 mg/L
Source text: Tomato seedlings (12 according to development scale BBCH) were planted into pots with peat substrate (P9 pots having 0.5 l). Plant pots were placed in greenhouse and cultivated for a 1 and a half month. Plants were sprayed with tested substance 3 times, in 10-day interval. […] 2-methoxyethyl(trimethyl)-ammonium benzo[1,2,3]thiadiazole-7-carboxylate; 3. […] 2-methoxyethyl(trimethyl)ammonium 3-chlorosalicylate; 7. 2-ethoxyethyl(trimethyl)ammonium 3-chlorosalicylate; 8. ethyl(trimethyl)ammonium 3-chlorosalicylate at a concentration od 80 mg/l. Plants were sprayed with tested substances three times at 10-day intervals. Plants in peat substrate treated with water only were the control. During the course of the experiment, the height of the plants was measured, and at the end the fresh and dry weight of the aboveground part was evaluated. Moreover chlorophyll content was measured. The experiment was conducted in 4 repetitions with 5 plants in each (a total of 20 plants per each variant of treatment).

lettuce = conditions: 3-chlorosalicylate 100 mg/L double application, benzothiadiazole salt 50 mg/L single application
Description: The purpose of the study was to determine the effect of foliar spraying with test solutions on lettuce plants (Lactuca sativa L. ‘Zeralda’) under abiotic stress conditions—low temperature. After 7 and 14 days after transplanting the plants to a permanent place, spraying of the plants was carried out. […] After another 7 days, low temperature stress was induced—plants were grown in three glass chambers with a day temperature of 22° C. and night temperatures of 4, 12 and 20° C. until harvest.

[1] = Table 2, 20 days after last treatment
[2] = Table 3 (title: tulip bulbs / root system)
[3] = BBCH 32, standard fungicide protection, 80 mg/L, benzothiadiazole salt 25 mg/L
[4] = BBCH 32, stimulant only, 80 mg/L, benzothiadiazole salt 25 mg/L
[5] = BBCH 55, standard fungicide protection, 80 mg/L, benzothiadiazole salt 25 mg/L
[6] = BBCH 55, without fungicide, 80 mg/L, benzothiadiazole salt 25 mg/L
[7] = first sampling date, stimulant at BBCH 31-32, no fungicide yet, 80 mg/L, benzothiadiazole salt 25 mg/L
[8] = second date, regardless of cultivation technology, 80 mg/L, benzothiadiazole salt 25 mg/L
[9] = 3-chlorosalicylate 80 mg/L, benzothiadiazole salt 30 mg/L

In the case of C[N+](C)(C)CCO.O=C([O-])c1cccc2nnsc12, the “Average stem diameter at the end of the experiment 20 days after the 4th treatment” value (tulip) is reported as 8.3 b mm, the Flowering length (tulip) is reported as 23 days and the Root length (tulip) is reported as 84.7 b mm. The “Vigor [on a scale from 1 to 5]” value (tulip; 1 is a laying plant, 5 is a stiff plant) was 4.9 b, the “Average dry weight of the above-ground part” value (tulip; [1]) was 44.1 b g and the “Average fresh weight of the above-ground part” value (tulip; [1]) was 435.7 b g. For the same compound, the “Average dry weight of the above-ground part” value (tulip; [2]) was 5.7 b g, the “Average fresh weight of the above-ground part” value (tulip; [2]) was 61.0 b g and the “Average plant height, initial height, first treatment” value (tulip; before 1st watering) was 46.4 a mm. The “Average plant height, second treatment” value (tulip; before 2nd watering) was 133.6 b mm, the “Average plant height, third treatment” value (tulip; before 3rd watering) was 271.2 b mm and the “Average plant height, fourth treatment” value (tulip; before 4th watering) was 375.6 b mm. For the same compound, the “Average plant height, 20 days after the 4th treatment” value (tulip; end of experiment) was 518.0 b mm, the “increase in calcium uptake” value (winter rapeseed; [3]) was 5% and the “increase in magnesium uptake” value (winter rapeseed; [3]) was 5%. The “increase in nitrogen uptake” value (winter rapeseed; [3]) was 5%, the “increase in phosphorus uptake” value (winter rapeseed; [3]) was 5% and the “increase in potassium uptake” value (winter rapeseed; [3]) was 6%. The “increase in calcium uptake” value (winter rapeseed; [4]) was 9%, the “increase in magnesium uptake” value (winter rapeseed; [4]) was 11% and the “increase in nitrogen uptake” value (winter rapeseed; [4]) was 8%. For the same compound, the “increase in phosphorus uptake” value (winter rapeseed; [4]) was 9%, the “increase in potassium uptake” value (winter rapeseed; [4]) was 7% and the higher fat content (winter rapeseed; BBCH 32, with fungicide, 80 mg/L, benzothiadiazole salt 25 mg/L) was 6%. For the same compound, the higher fat content (winter rapeseed; BBCH 32, without fungicide, 80 mg/L, benzothiadiazole salt 25 mg/L) was 8%, the “increase in calcium uptake” value (winter rapeseed; [5]) was 10% and the “increase in fat content” value (winter rapeseed; [5]) was 6%. For the same compound, the “increase in magnesium uptake” value (winter rapeseed; [5]) was 9%, the “increase in nitrogen uptake” value (winter rapeseed; [5]) was 9% and the “increase in phosphorus uptake” value (winter rapeseed; [5]) was 11%. For the same compound, the “increase in potassium uptake” value (winter rapeseed; [5]) was 8%, the “increase in calcium uptake” value (winter rapeseed; [6]) was 9% and the “increase in fat content” value (winter rapeseed; [6]) was “increase”. For the same compound, the “increase in magnesium uptake” value (winter rapeseed; [6]) was 13%, the “increase in nitrogen uptake” value (winter rapeseed; [6]) was 12% and the “increase in phosphorus uptake” value (winter rapeseed; [6]) was 9%. For the same compound, the “increase in potassium uptake” value (winter rapeseed; [6]) was 8%, the “seed yields higher compared to control” value (winter rapeseed; both fungicide and stimulant treatments, 80 mg/L, benzothiadiazole salt 25 mg/L) was 12% and the “chlorophyll content, differences between the tested objects” value (winter rapeseed; first measurement date) was “no differences were observed”. The “more biomass (dry weight) compared to control” value (winter rapeseed; [7]) was 29%, the “more biomass (fresh weight) compared to control” value (winter rapeseed; [7]) was 28% and the “more aboveground dry matter compared to control” value (winter rapeseed; only the stimulant, 80 mg/L, benzothiadiazole salt 25 mg/L) was 32%. The “more aboveground dry matter compared to control” value (winter rapeseed; with fungicide protection, 80 mg/L, benzothiadiazole salt 25 mg/L) was 38%, the “more dry weight compared to control, on average” value (winter rapeseed; [8]) was 26% and the “more fresh weight compared to control, on average” value (winter rapeseed; [8]) was 24%. For the same compound, the “weight of one thousand seeds higher compared to control” value (winter rapeseed; tested combinations, 80 mg/L, benzothiadiazole salt 25 mg/L) was 12%, the “more chlorophyll in the leaves (SPAD) compared to control” value (“more chlorophyll … compared to control” below) (winter rapeseed; with a fungicide, printed 'first date' (of second and third measurement dates), 80 mg/L, benzothiadiazole salt 25 mg/L) was 6% and the “more chlorophyll … compared to control” value (winter rapeseed; with a fungicide, printed 'second date', 80 mg/L, benzothiadiazole salt 25 mg/L) was 8%. For the same compound, the “more chlorophyll … compared to control” value (winter rapeseed; without a fungicide, printed 'first date', 80 mg/L, benzothiadiazole salt 25 mg/L) was 8%, the “more chlorophyll … compared to control” value (winter rapeseed; without a fungicide, printed 'second date', 80 mg/L, benzothiadiazole salt 25 mg/L) was 12% and the “seed yields higher compared to control” value (winter rapeseed; without fungicide protection, stimulant at BBCH 31-32, 80 mg/L, benzothiadiazole salt 25 mg/L) was 9%. For the same compound, the Average dry mass (broccoli; [9]) was 0.7 b g, the Average fresh mass (broccoli; [9]) was 7.8 c g and the “Average plant height, initial height, before first treatment” value (broccoli; [9]) was 39.2 c mm. For the same compound, the “Average plant height, second treatment” value (broccoli; [9]) was 187.2 b mm, the “Average plant height, third treatment” value (broccoli; [9]) was 215.7 b mm and the Plant height increase (broccoli; [9]) was 176.5 b mm. The “number of leaves developed” value (broccoli; FIG. 2, treated once, 5 mg/L, control plant developed 3 leaves) was 4, the “Average plant height, before second treatment” value (tomato seedlings; chitosan lactate 50 mg/l) was 146.7 b mm and the “Average plant height, before third treatment” value (tomato seedlings; chitosan lactate 50 mg/l) was 337.1 b mm. The “Average plant height, initial height, before first treatment” value (tomato seedlings; chitosan lactate 50 mg/l) was 60.5 a mm, the “Chlorophyll content (SPAD), a day after treatment #1” value (tomato seedlings; chitosan lactate 50 mg/l) was 76.1 b and the “Chlorophyll content (SPAD), a day after treatment #2” value (tomato seedlings; chitosan lactate 50 mg/l) was 81.3 c. The “Chlorophyll content (SPAD), a day after treatment #3” value (tomato seedlings; chitosan lactate 50 mg/l) was 78.2 b, the Plant height increase (tomato seedlings; chitosan lactate 50 mg/l) was 276.6 b mm and the Average dry mass (tomato seedlings; above-ground part) was 87.5 b g. The Average fresh mass (tomato seedlings; above-ground part) was 333.5 b g, the “Chlorophyll content (SPAD), Treatment #1” value (tomato seedlings; before treatment #1, chitosan lactate 50 mg/l) was 49.6 a and the “Chlorophyll content (SPAD), Treatment #2” value (tomato seedlings; before treatment #2, chitosan lactate 50 mg/l) was 47.5 a. For the same compound, the “Chlorophyll content (SPAD), Treatment #3” value (tomato seedlings; before treatment #3, chitosan lactate 50 mg/l) was 50.1 a, the “Head weight, 4° C.” value (lettuce; night temperature 4° C.) was 47.6 b g/plant and the “Head weight, 12° C.” value (lettuce; night temperature 12° C.) was 54.9 b c g/plant. For the same compound, the “Head weight, 20° C.” value (lettuce; night temperature 20° C.) was 65.1 b g/plant.
